# Assay results as given in patent publication US20230058279A1, “HERBICIDE COMPOSITIONS WITH AUXIN HERBICIDE MONOETHANOLAMINE SALTS WITH IMPROVED PROPERTIES” (MONSANTO TECHNOLOGY LLC, priority 2020, published 2023).
# Assay: Partition coefficient of compound (A) in solvents
# Type: physicochemical
# Settings: HPLC
# Experimental: Experimental procedure for the respective solvent: (1) A solution of 10 g of compound (A) is prepared in 90 g of the respective solvent. (2) An aliquot of 10 g of the solution obtained in step (1) is added to 90 g of water in a glass bottle, which is shaken on a mechanical shaker for 4 hours at ambient temperature (approximately 25° C.). (3) The contents of the glass bottle are permitted to phase separate for 4 days at ambient temperature (approximately 25° C.). (4) Subsamples of the resulting oil and water phases are taken and analyzed by HPLC to determine the concentrations of compound (A) in oil (Co) and water phases (Cw) respectively. The subsamples are typically centrifuged before HPLC analysis to remove traces of organic solvent from the water phase.
# A Partition Coefficient, analogous to the Octanol-Water Partition Coefficient, P, is calculated as Co/Cw. The Partition Coefficient is conveniently expressed as a logarithm […].
# The ratio of determined concentrations of compound (A) in the solvent phase and the water phase typically is very large. […] In other cases, traces of the organic solvent are found in the water phase, even after centrifugation, so that the apparent concentration of oil-soluble herbicide observed in the water phase is misleadingly high. […]
compound,measurement,setting,value
"CCOC(=O)COc1ncccc1Oc1cc(-n2c(=O)cc(C(F)(F)F)n(C)c2=O)c(F)cc1Cl [Cmp. A, ethyl [3-[2-chloro-4-fluoro-5-(1-methyl-6-trifluoromethyl-2,4-dioxo-1,2,3,4-tetrahydropyrimidin-3-yl)phenoxy]-2-pyridyloxy]acetate]",compound (A) in the water phase,acetophenone as organic solvent,undetectable
same,compound (A) in the water phase,aromatic 200ND as organic solvent,undetectable
